Assay results: BindingDB's records for doi:10.1016/j.bioorg.2016.03.001 (Jishou University, 2016)
pIC50: −log10 of the molar value.

Biological target: Alpha-glucosidase MAL12 (Saccharomyces cerevisiae (strain ATCC 204508 / S288c), UniProt P53341)
Assay: In vitro Assay of alpha-Glucosidasee Inhibitory Activity
Conditions: pH 6.8
Method: The test compounds were dissolved in DMSO to prepare the required distributing concentration. α-Glucosidase inhibitory activity was assayed by using 50 mM phosphate buffer (pH 6.8) at 37 °C. The enzymatic reaction mixture composed of 20 µL α-glucosidase (0.2 U), 10 µL of various concentrations of test compounds and 140 µL of phosphate buffer was incubated at 37 °C for 10 min. Then 0.5 mM p-nitrophenyl α-D-glucopyranoside (30 µL) was added to the mixture as a substrate. After further incubation at 37 °C for 30 min. The absorbance was measured spectrophotometrically at 405 nm. The sample solution was replaced by DMSO as a control. Acarbose was used as a positive control. All experiments were carried out in triplicates.

Alpha-glucosidase MAL12, sequence (P53341 whole entry): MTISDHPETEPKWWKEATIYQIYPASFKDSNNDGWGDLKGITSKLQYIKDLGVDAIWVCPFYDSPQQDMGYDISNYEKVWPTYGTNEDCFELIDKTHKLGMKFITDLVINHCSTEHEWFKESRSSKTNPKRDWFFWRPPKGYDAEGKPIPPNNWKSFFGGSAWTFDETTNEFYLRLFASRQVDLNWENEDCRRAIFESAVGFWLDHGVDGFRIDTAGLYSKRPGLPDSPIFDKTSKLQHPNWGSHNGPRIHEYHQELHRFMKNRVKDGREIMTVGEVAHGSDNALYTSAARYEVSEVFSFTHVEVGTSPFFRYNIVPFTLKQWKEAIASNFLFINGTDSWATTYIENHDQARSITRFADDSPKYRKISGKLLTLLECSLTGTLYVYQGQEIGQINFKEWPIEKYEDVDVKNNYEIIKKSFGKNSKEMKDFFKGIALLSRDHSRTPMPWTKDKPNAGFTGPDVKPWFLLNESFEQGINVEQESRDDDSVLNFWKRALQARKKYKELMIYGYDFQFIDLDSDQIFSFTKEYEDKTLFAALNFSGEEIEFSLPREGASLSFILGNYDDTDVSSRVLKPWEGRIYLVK

Row | SMILES | pIC50
1 | O=C(N/N=C/c1ccc(Cl)cc1)c1nc(-c2cc3ccccc3oc2=O)cs1 [(E)-N'-(4-Chlorobenzylidene)-4-(2-oxo-2H-chromen-3-yl)thiazole-2-carbohydrazide (7m)] | 4.98
2 | COc1ccccc1/C=N/NC(=O)c1nc(-c2cc3ccccc3oc2=O)cs1 [(E)-N'-(2-Methoxybenzylidene)-4-(2-oxo-2H-chromen-3-yl)thiazole-2-carbohydrazide (7s)] | 4.19
3 | O=C(N/N=C/c1ccc(C(F)(F)F)cc1)c1nc(-c2cc3ccccc3oc2=O)cs1 [(E)-4-(2-Oxo-2H-chromen-3-yl)-N'-(4-(trifluoromethyl)benzylidene)thiazole-2-carbohydrazide (7o)] | 4.80
4 | COc1ccc(/C=N/NC(=O)c2nc(-c3cc4ccccc4oc3=O)cs2)c(O)c1 [(E)-N'-(2-Hydroxy-4-methoxybenzylidene)-4-(2-oxo-2Hchromen-3-yl)thiazole-2-carbohydrazide (7i)] | 4.52
5 | O=C(N/N=C/c1ccccc1F)c1nc(-c2cc3ccccc3oc2=O)cs1 [(E)-N'-(2-Fluorobenzylidene)-4-(2-oxo-2H-chromen-3-yl)thiazole-2-carbohydrazide (7p)] | 4.63
6 | CC(C)(C)c1cc(/C=N/NC(=O)c2nc(-c3cc4ccccc4oc3=O)cs2)c(O)c(C(C)(C)C)c1 [(E)-N'-(3,5-Di-tert-butyl-2-hydroxybenzylidene)-4-(2-oxo-2Hchromen-3-yl)thiazole-2-carbohydrazide (7d)] | 4.99
7 | O=C(N/N=C/c1ccccc1O)c1nc(-c2cc3ccccc3oc2=O)cs1 [(E)-N'-(2-Hydroxybenzylidene)-4-(2-oxo-2H-chromen-3-yl)thiazole-2-carbohydrazide (7b)] | 4.43
8 | O=C(N/N=C/c1ccc(O)c(O)c1)c1nc(-c2cc3ccccc3oc2=O)cs1 [(E)-N'-(3,4-Dihydroxybenzylidene)-4-(2-oxo-2H-chromen-3-yl)thiazole-2-carbohydrazide (7k)] | 4.74
9 | O=C(N/N=C/c1ccc(O)cc1)c1nc(-c2cc3ccccc3oc2=O)cs1 [(E)-N'-(4-Hydroxybenzylidene)-4-(2-oxo-2H-chromen-3-yl)thiazole-2-carbohydrazide (7c)] | 4.60
10 | O=C(N/N=C/c1cc(Cl)ccc1O)c1nc(-c2cc3ccccc3oc2=O)cs1 [(E)-N'-(5-Chloro-2-hydroxybenzylidene)-4-(2-oxo-2Hchromen-3-yl)thiazole-2-carbohydrazide (7h)] | 5.08
11 | O=C(N/N=C/c1cccc(F)c1)c1nc(-c2cc3ccccc3oc2=O)cs1 [(E)-N'-(3-Fluorobenzylidene)-4-(2-oxo-2H-chromen-3-yl)thiazole-2-carbohydrazide (7q)] | 4.65
12 | O=C(N/N=C/c1cccc(Cl)c1)c1nc(-c2cc3ccccc3oc2=O)cs1 [(E)-N'-(3-Chlorobenzylidene)-4-(2-oxo-2H-chromen-3-yl)thiazole-2-carbohydrazide (7n)] | 4.92
13 | O=C(N/N=C/c1cccc(Br)c1)c1nc(-c2cc3ccccc3oc2=O)cs1 [(E)-N'-(3-bromobenzylidene)-4-(2-oxo-2H-chromen-3-yl)thiazole-2-carbohydrazide (7r)] | 4.85
14 | COc1ccc(/C=N/NC(=O)c2nc(-c3cc4ccccc4oc3=O)cs2)cc1 [(E)-N'-(4-Methoxybenzylidene)-4-(2-oxo-2H-chromen-3-yl)thiazole-2-carbohydrazide (7a)] | 4.09
15 | O=C(N/N=C/c1ccc(O)c(F)c1)c1nc(-c2cc3ccccc3oc2=O)cs1 [(E)-N'-(3-Fluoro-4-hydroxybenzylidene)-4-(2-oxo-2Hchromen-3-yl)thiazole-2-carbohydrazide (7g)] | 4.78
